Experimental data as given in paper PMC4109680, “Identification and Preclinical Pharmacology of the γ-Secretase Modulator BMS-869780” (International Journal of Alzheimer's Disease, 2014).
Where two headings read alike, the source gives them in different places.

Legend:
[1] = Prediction of human PK and dose by allometric scaling combined with rat PK/PD
Method: Interspecies allometric scaling adjusted for brain weight was used to predict human CLTp, while simple allometric scaling was used to predict Vss. Briefly, the Vss and brain weight adjusted CLTp values from nonclinical species were plotted against body weight on a log-log scale to yield estimates of Vss and CLTp × brain weight in humans. The estimated CLTp × brain weight for human was adjusted for the brain weight of humans to yield a predicted CLTp. […] Noncompartmental analysis was performed using WinNonlin software (version 5.0; Pharsight Corporation, Mountain View, CA). The k a for each species was obtained from the IV and PO (nanosuspensions) of rat, dog, and cynomolgus monkey by deconvolution of plasma concentration-time data using Kinetica (version 5.0; Seattle, WA). The bioavailability was estimated from the nanosuspensions from rat, dog, and cynomolgus monkeys. The average k a and F, along with the Vss and CLTp from allometric scaling, were incorporated into a two-compartment model to predict the human oral plasma concentration-time profiles.

brain Aβ1-42 and Aβ1-40 = assay: Rat 4-day repeat dose, residual brain Aβ by ELISA and immunodepletion; type: in vivo
Method: Figure 7 BMS-869780 dose response and evaluation of residual Aβ levels in rat brain. (a) Groups of rats received intraperitoneal (IP) injections of vehicle or BMS-869780 at doses of 100, 30, 10, 3, 1, and 0.3 mg/kg. Additional rats were dosed with GSI BMS-698861 at 30 mg/kg as a positive control for Aβ-lowering. Group sizes were seven rats for each dose of BMS-869780 and 14 rats for vehicle and GSI dose groups. Brain and plasma were harvested 5 hours after dosing. Brain Aβ1-42 (green), brain Aβ1-40 (blue), brain Aβ1-x (black), and plasma Aβ1-40 (red) were determined. Values are expressed as % relative to vehicle group mean. Whiskers represent standard error. ⊗Aβ1-x was not determined in the groups dosed at 3, 1, and 0.3 mg/kg. (b) Brain Aβ1-40 was plotted against brain Aβ1-42 for each rat dosed with BMS-869780 (black ▼) and for each rat dosed with vehicle (grey ●). Values are expressed as % relative to vehicle group mean. Whiskers represent standard error. […] The respective 95% confidence intervals were 618–1053 nM, 704–1264 nM, and 44–158 nM. (d) Rats were dosed once daily with BMS-869780 for 4 days at 10 and 100 mg/kg or vehicle, plasma, and brain samples were taken 5 hours after the last dose, and immunodepletion of brain extracts was carried out prior to Aβ1-42 ELISA assays. […] After immunodepletion, Aβ1-42 was assayed by ELISA. (e) Same as described in (d), except that Aβ1-40 ELISA was carried out following the immunodepletion.
For immunodepletion of rat brain Aβ, solid phase extracts were pooled within treatment groups. The pools were divided into equal aliquots and incubated with or without monoclonals 565, TSD, 4G8, or 6E10 (10 μg) at 4°C overnight. Protein G beads (50 μL; EZview, Sigma) were added, and incubation was continued with agitation for 1 hour. The beads were removed by centrifugation, and Aβ1-40 and Aβ1-42 in the unbound fraction were quantified by ELISA, as described above.
(§1) All experimental procedures with animals followed National Institutes of Health guidelines and were authorized by and in compliance with policies of the Bristol-Myers Squibb Animal Use and Care Committee. Mice and rats were housed with a 6:00 AM to 6:00 PM light/dark cycle and allowed free access to food and water. For 3xTg mice, BMS-869780 was dosed in three-month-old females by oral gavage at 6 mL/kg in vehicle consisting of 84% polyethylene glycol average molecular weight of 400 (PEG-400), 15% EtOH, and 1% Tween-80 (w/w/w). The compound was dissolved in EtOH and then diluted with PEG-400 and Tween, after which the vial was sealed, vortexed, and sonicated at 56°C for 1 hour. Animals were euthanized by asphyxiation in CO2. Blood was collected by cardiac puncture and placed into ethylene-diaminetetraacetic acid microtainer tubes for the preparation of plasma. The cerebellum was collected for the determination of compound concentration, and the remaining brain was separated into left and right halves before freezing in liquid nitrogen. For the rat time course study, 8- to 12-week-old female Sprague-Dawley rats were obtained from Charles River Laboratories (Wilmington, MA), BMS-869780 was dosed orally at 4 mL/kg, and brain and plasma samples were collected as described for the 3xTg mice. For the four day repeat dose rat study, BMS-869780 was given by oral gavage in vehicle consisting of PEG-400, PEG-200, D-α-tocopheryl polyethylene glycol succinate, Solutol HS 15, in the ratio 80 : 10 : 5 : 5 (w/w/w/w). Methods for the pharmacokinetics studies in rat, dog, and monkey are described below.

[2] = Rat time course PK/PD, oral dose, indirect response model; type: in vivo; conditions: female, Sprague-Dawley, plasma
Method: (§2) Figure 8 Analysis of the PK/PD relationship for BMS-869780 in rats and mice. Rats were dosed orally with BMS-869780 at 10 mg/kg, and triple transgenic mice were orally dosed at 30 mg/kg and 100 mg/kg. Additional groups of rats and mice were dosed with vehicle alone. Brain and plasma were harvested at 3, 5, 8, 16, and 24 hours after dosing for determination of brain Aβ1-42 and plasma BMS-869780 concentration. Group sizes were 5 rats or 4 mice. Whiskers represent standard error. […] The data were fit to a one-compartment PK model and the predicted plasma BMS-869780 concentrations are shown for mouse (solid lines) and rat (broken line). […] The data were fitted using the indirect pharmacodynamic response model and predicted values are shown (solid lines). (c) Brain Aβ1-42 levels were determined for the rats dosed with BMS-869780 at 10 mg/kg (▼) or vehicle alone (●). The data were fitted using the indirect pharmacodynamic response model and predicted values are shown (dashed line). (d) Brain Aβ1-40 levels determined in the same rats as illustrated in (c).
as §1
(§3) The data generated in the mouse and rat time course experiments were analyzed sequentially by nonlinear regression (WinNonlin Pharsight Corporation, Mountain View, CA). The pharmacokinetic data were best described by a 1-compartment linear model with first-order absorption and elimination. Subsequently, the pharmacodynamic parameters were estimated from the BMS-869780 plasma concentrations and the observed reductions of brain Aβ1-42 or Aβ1-40 by fitting to the equation for inhibition of synthesis. The goodness-of-fit was determined by visual inspection, Akaike Information Criterion, Schwartz Criterion, examination of the residuals and the coefficient of variation of the parameter estimates.

brain Aβ1-42 = assay: as above; type: in vivo; conditions: for IC50: po
Method: as §2, §1, §3

[3] = Human 700 mg PO suspension (predicted steady state)
[4] = averaged across depleted samples in both dose groups
[5] = four daily doses, 10 and 100 mg/kg, 5 hours after last dose
[6] = Rat 10 mg/kg PO solution (observed 0–24 hours)

SMILES: COc1cc(Nc2nc3n(n2)CCCC[C@H]3c2ccc(F)cc2)ccc1-n1cnc(Cl)c1 [BMS-869780]
- Brain Aβ ABEC 24 hr Aβ1-42 [1, 3]: 25%
- Plasma AUC 0–24 hr [1, 3]: 17.8 µM·h
- Cmax ([1]; plasma, oral, Human 700 mg once daily (predicted steady state)): 1270 nM
- AUC(0-t) ([1]; plasma, Human 700 mg PO suspension (predicted steady state), read-out: Plasma AUC 0–24 hr): 17.6 µM·h
- residual signal for Aβ1-40 after immunodepletion (brain Aβ1-42 and Aβ1-40; [4]): 4%
- residual signal for Aβ1-42 after immunodepletion (brain Aβ1-42 and Aβ1-40; [4]): 16%
- residual pool of Aβ1-40 (brain Aβ1-42 and Aβ1-40; four daily doses): ~7%
- residual pool of Aβ1-42 (brain Aβ1-42 and Aβ1-40; four daily doses): ca. 15%
- residual ELISA signal for Aβ1-40 (brain Aβ1-42 and Aβ1-40; [5]): 19%
- residual ELISA signal for Aβ1-42 (brain Aβ1-42 and Aβ1-40; [5]): 31%
- k el ([2]; oral, 10 mg/kg, rat, 1-compartment PK model): 2.78e-05 s⁻¹
- AUC(0-t) [2, 6]: 46.3 µM·h
- Brain Aβ ABEC 24 hr Aβ1-40 (brain Aβ1-42; [6]): 46.1%
- Brain Aβ ABEC 24 hr Aβ1-42 (brain Aβ1-42; [6]): 47.0%
- IC50 (brain Aβ1-42; Rattus norvegicus, read-out: in vivo plasma IC50 for brain Aβ1-42): 1.9 µM
- IC50 (brain Aβ1-42; rat, PD model, read-out: IC50 (plasma concentration required for 50% inhibition of Aβ production)): 1.89 µM
- V/F (brain Aβ1-42; rat): 1.94 L/kg
- in vivo IC50 (corrected for protein binding) relative to in vitro IC50 for Aβ1-42 (brain Aβ1-42; rat and 3xTg mouse, M146V allele taken into account for mouse): ≤ 2 fold
- Ka1 (10 mg/kg) (brain Aβ1-42; rat, 10 mg/kg oral): 0.19 h⁻¹
- K in (brain Aβ1-42; rat, calculated): 48 %/h
- K OUT (brain Aβ1-42; rat, rate constant for degradation of Aβ): 0.48 h⁻¹
